According to PMC3698126, “MtnBD Is a Multifunctional Fusion Enzyme in the Methionine Salvage Pathway of Tetrahymena thermophila” (PLoS ONE, 2013):
Each block holds one compound with its values, some of them ahead of it.

How the values were obtained:
MtnB domain = molecular target: T1, MtnB domain (Tetrahymena thermophila, UniProt I7MAL0); assay: UV-visible and 1H-NMR product analysis; type: biochemical; settings: dehydratase/enolase to HK-MTPenyl-1-P; 5 mM MgCl2, pH 8.0, 35°C; substrate made in situ from MTR-1-P by MtnA; kcat only, no Km
T1 construct: gene TTHERM_00467500

Full-length MtnBD = molecular target: T2, Full-length MtnBD (Tetrahymena thermophila, UniProt I7MAL0); assay: UV-visible and 1H-NMR product analysis; type: biochemical; settings: dehydratase/enolase to HK-MTPenyl-1-P; 5 mM MgCl2, pH 8.0, 35°C; substrate made in situ from MTR-1-P by MtnA; kcat only, no Km
T2 construct: gene TTHERM_00467500
T2 sequence (I7MAL0 1-400): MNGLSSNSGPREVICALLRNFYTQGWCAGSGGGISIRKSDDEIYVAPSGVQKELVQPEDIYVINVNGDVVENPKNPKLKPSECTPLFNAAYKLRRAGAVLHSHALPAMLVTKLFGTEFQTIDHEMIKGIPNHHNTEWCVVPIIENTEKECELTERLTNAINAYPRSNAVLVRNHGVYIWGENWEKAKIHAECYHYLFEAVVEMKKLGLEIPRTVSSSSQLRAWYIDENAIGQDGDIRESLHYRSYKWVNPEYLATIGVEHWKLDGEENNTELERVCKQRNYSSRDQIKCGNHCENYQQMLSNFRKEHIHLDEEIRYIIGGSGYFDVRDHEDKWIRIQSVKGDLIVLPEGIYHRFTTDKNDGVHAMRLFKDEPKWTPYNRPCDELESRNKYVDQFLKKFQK

[1] = molecular target: Tetrahymena thermophila MtnBD, full-length, histidine-tagged recombinant protein (Tetrahymena thermophila); assay: native gel or EMSA; native-PAGE, 5-20% gradient polyacrylamide gel, non-denaturing conditions, 1 ug purified protein, mass estimated against native high molecular weight markers; oligomer size from native mass over calculated monomer mass
[2] = molecular target: MtnB domain of Tetrahymena thermophila MtnBD (Met1-Ser216), histidine-tagged recombinant protein (Tetrahymena thermophila); assay: as above
B. subtilis MtnX = molecular target: T3, B. subtilis MtnX (Bacillus subtilis, UniProt O31667); assay: UV-visible spectral shift to […] nm and 1H-NMR; type: biochemical; settings: phosphatase reaction to DHK-MTPene; pH 8.0, 35°C; substrate made in situ by T. thermophila MtnB domain
T3 sequence (O31667 1-235): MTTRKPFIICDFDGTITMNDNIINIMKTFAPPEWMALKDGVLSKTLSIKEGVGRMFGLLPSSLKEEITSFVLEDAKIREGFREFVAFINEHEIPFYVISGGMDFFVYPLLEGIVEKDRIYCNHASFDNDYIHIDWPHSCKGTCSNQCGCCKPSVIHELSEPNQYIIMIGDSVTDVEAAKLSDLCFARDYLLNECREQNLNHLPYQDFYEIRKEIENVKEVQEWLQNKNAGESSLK

Compound: CSC[C@@H](O)[C@@H](O)C(=O)COP(=O)(O)O [MTRu-1-P]
- UV-visible and 1H-NMR product analysis (MtnB domain): MtnB domain catalyzed the dehydration/enolization reactions to convert MTRu-1-P to HK-MTPenyl-1-P
- UV-visible and 1H-NMR product analysis (Full-length MtnBD): T. thermophila MtnBD catalyzed the conversion of MTRu-1-P to HK-MTPenyl-1-P

- stoichiometry N [1]: 6
Compound: Tetrahymena thermophila MtnBD, full-length, histidine-tagged recombinant protein (enzyme)

- stoichiometry N [2]: 6
Compound: MtnB domain of Tetrahymena thermophila MtnBD (Met1-Ser216), histidine-tagged recombinant protein (domain or fragment)

Compound: CSCCC(=O)C(O)=COP(=O)(O)O [HK-MTPenyl-1-P]
- UV-visible spectral shift to 310 nm and 1H-NMR (B. subtilis MtnX): DHK-MTPene was obtained from the reaction of B. subtilis MtnX with HK-MTPenyl-1-P
